Where “and” joins values, the source holds several entries; their conditions need not be identical. Equal values may be shown once. Read-outs that look alike come from different tables or passages of the source.
Columns and labels:
[1] = tested on: human osteosarcoma cell line SJSA-1; assay: Inhibition of proliferation of human osteosarcoma cell line SJSA-1 (DAPI staining, In Cell Analyzer); conditions: Homo sapiens, SJSA-1, 72 h, read-out: IC50 (nM), inhibitory activity on proliferation of human osteosarcoma cell line SJSA-1, SJSA-1, incubated 72 h
[2] = Pharmacokinetics in ICR mice after intravenous and intragastric administration; format: in vivo; conditions: for MRT last: read-out: MRT(0-t); for MRT inf: read-out: MRT(0-∞); for Vd: read-out: Vz
Summary of the method: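 Plasma concentrations by LC-MS/MS (range 1 to 2000 ng/ml) following single intravenous (2 mg/kg) or oral gavage (5 mg/kg) dosing of fasted male ICR mice, three per group. Vehicle 5% DMSO + 40% PEG400 + 55% (10% HP-β-CD in saline); standard PK parameters including bioavailability calculated.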

MDM2 = biological target: T1, MDM2 (Homo sapiens, UniProt Q00987); assay: Inhibition test of MDM2-P53 (GST-MDM2, Biotin-P53, Anti-GST-Tb, SA-XL665); format: binding
T1 construct: made in house
Summary of the method: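 Compounds, serially diluted 5-fold (twelve concentrations), were shaken for 90 min at 25° C with a mix of GST-MDM2 (4 nM final), Biotin-P53, anti-GST-Tb and SA-XL665. Buffer: 1×PBS, 0.1% BSA, 5 mM DTT, 1 mM AEBSF; signal read on a microplate reader.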

[3] = ICR mice, IV 2 mg/kg, individual animal, 2 mg/kg
[4] = ICR mice, PO 5 mg/kg, individual animal, 5 mg/kg
[5] = male, ICR, mouse, plasma, iv, 2 mg/kg, ICR mice, IV 2 mg/kg, individual animal
[6] = male, ICR, mouse, plasma, iv, 2 mg/kg, ICR mice, IV 2 mg/kg, mean of 3 animals
[7] = male, ICR, mouse, plasma, po, 5 mg/kg, ICR mice, PO 5 mg/kg, individual animal
[8] = male, ICR, mouse, plasma, po, 5 mg/kg, ICR mice, PO 5 mg/kg, mean of 3 animals

T1 sequence (Q00987 whole entry): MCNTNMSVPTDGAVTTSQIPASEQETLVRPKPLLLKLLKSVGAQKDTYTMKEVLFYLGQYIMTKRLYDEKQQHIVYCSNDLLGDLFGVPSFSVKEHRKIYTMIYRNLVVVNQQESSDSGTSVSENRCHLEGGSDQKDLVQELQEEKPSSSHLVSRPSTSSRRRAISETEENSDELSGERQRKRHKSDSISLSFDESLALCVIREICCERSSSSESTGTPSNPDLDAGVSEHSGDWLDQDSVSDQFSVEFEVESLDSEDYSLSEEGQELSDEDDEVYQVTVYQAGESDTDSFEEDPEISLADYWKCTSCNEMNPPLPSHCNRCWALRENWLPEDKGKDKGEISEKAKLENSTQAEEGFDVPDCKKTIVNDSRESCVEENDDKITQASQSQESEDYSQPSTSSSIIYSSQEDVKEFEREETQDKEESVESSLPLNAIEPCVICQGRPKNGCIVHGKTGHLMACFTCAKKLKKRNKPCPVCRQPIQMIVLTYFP

COc1cc(OC(C)C)ncc1-c1nc2c(n1C(C)C)[C@@]1(C(=O)Nc3cc(Cl)ccc31)N(c1cc(Cl)ccc1C)C2=O [Example S-69, (S)-6-chloro-5′-(5-chloro-2-methylphenyl)-2′-(6-isopropoxy-4-methoxypyridin-3-yl)-3′-isopropyl-3′H-spiro[dihydroindole-3,4′-pyrrolo[3,4-d]imidazole]-2,6′(5′H)-dione]
IC50 [1]: 2.29 nM | AUC(0-t) [2, 3]: 50006.21 ng·h/mL and 52203.96 ng·h/mL | AUC(0-∞) [2, 3]: 50659.35 ng·h/mL and 52314.11 ng·h/mL | CL [2, 3]: 0.66 mL/min/kg | Cmax [2, 3]: 5141.60 ng/mL and 6038.43 ng/mL | MRT(0-t) [2, 3]: 4.62 h and 4.30 h | MRT(0-∞) [2, 3]: 4.95 h and 4.35 h | Tmax [2, 3]: 0.50 h and 0.08 h | Vz [2, 3]: 0.23 L/kg | t1/2 [2, 3]: 4.02 h and 2.83 h | AUC(0-t) [2, 4]: 106563.84 ng·h/mL and 85266.27 ng·h/mL | AUC(0-∞) [2, 4]: 106654.00 ng·h/mL and 85298.58 ng·h/mL | Cmax [2, 4]: 10867.97 ng/mL and 11828.43 ng/mL | MRT(0-t) [2, 4]: 5.03 h and 4.46 h | MRT(0-∞) [2, 4]: 5.04 h and 4.47 h | t1/2 [2, 4]: 2.28 h and 2.03 h | AUC(0-inf) [2, 5]: 53200 ng·h/mL | clearance [2, 5]: 0.63 mL/min/kg | AUC(0-t) ([2]; male, ICR, mouse, plasma, iv, 2 mg/kg, ICR mice, IV 2 mg/kg, individual animal, read-out: AUC(0-t)): 53100 ng·h/mL | Cmax ([2]; male, ICR, mouse, plasma, iv, 2 mg/kg, ICR mice, IV 2 mg/kg, individual animal, read-out: Cmax): 5980 ng/mL | MRT last [2, 5]: 4.38 h | MRT inf [2, 5]: 4.44 h | Vd [2, 5]: 0.16 L/kg | half-life ([2]; male, ICR, mouse, plasma, iv, 2 mg/kg, ICR mice, IV 2 mg/kg, individual animal, read-out: t1/2 (converted)): 2.88 h | AUC(0-inf) [2, 6]: 52100 ng·h/mL | clearance [2, 6]: 0.64 mL/min/kg | AUC(0-t) ([2]; male, ICR, mouse, plasma, iv, 2 mg/kg, ICR mice, IV 2 mg/kg, mean of 3 animals, read-out: AUC(0-t)): 51800 ng·h/mL | Cmax ([2]; male, ICR, mouse, plasma, iv, 2 mg/kg, ICR mice, IV 2 mg/kg, mean of 3 animals, read-out: Cmax): 5720 ng/mL | MRT last [2, 6]: 4.43 h | MRT inf [2, 6]: 4.58 h | Tmax ([2]; male, ICR, mouse, plasma, iv, 2 mg/kg, ICR mice, IV 2 mg/kg, mean of 3 animals, read-out: Tmax): 0.222 h | Vd [2, 6]: 0.18 L/kg | half-life ([2]; male, ICR, mouse, plasma, iv, 2 mg/kg, ICR mice, IV 2 mg/kg, mean of 3 animals, read-out: t1/2 (converted)): 3.24 h | AUC(0-inf) [2, 7]: 69300 ng·h/mL | AUC(0-t) ([2]; male, ICR, mouse, plasma, po, 5 mg/kg, ICR mice, PO 5 mg/kg, individual animal, read-out: AUC(0-t)): 69200 ng·h/mL | Cmax ([2]; male, ICR, mouse, plasma, po, 5 mg/kg, ICR mice, PO 5 mg/kg, individual animal, read-out: Cmax): 7630 ng/mL | MRT last [2, 7]: 4.92 h | MRT inf [2, 7]: 4.94 h | Tmax ([2]; male, ICR, mouse, plasma, po, 5 mg/kg, ICR mice, PO 5 mg/kg, individual animal, read-out: Tmax): 2 h | half-life ([2]; male, ICR, mouse, plasma, po, 5 mg/kg, ICR mice, PO 5 mg/kg, individual animal, read-out: t1/2 (converted)): 2.24 h | AUC(0-inf) [2, 8]: 87100 ng·h/mL | AUC(0-t) ([2]; male, ICR, mouse, plasma, po, 5 mg/kg, ICR mice, PO 5 mg/kg, mean of 3 animals, read-out: AUC(0-t)): 87000 ng·h/mL | Cmax ([2]; male, ICR, mouse, plasma, po, 5 mg/kg, ICR mice, PO 5 mg/kg, mean of 3 animals, read-out: Cmax): 10100 ng/mL | MRT last [2, 8]: 4.8 h | MRT inf [2, 8]: 4.82 h | Tmax ([2]; male, ICR, mouse, plasma, po, 5 mg/kg, ICR mice, PO 5 mg/kg, mean of 3 animals, read-out: Tmax): 2 h | half-life ([2]; male, ICR, mouse, plasma, po, 5 mg/kg, ICR mice, PO 5 mg/kg, mean of 3 animals, read-out: t1/2 (converted)): 2.18 h | AUC(0-t) ([2]; male, ICR, mouse, plasma, po, 5 mg/kg, oral intragastric administration 5 mg/kg, read-out: AUC0-t): 87000 ng·h/mL | half-life ([2]; male, ICR, mouse, plasma, po, 5 mg/kg, oral intragastric administration 5 mg/kg, read-out: half-life (converted)): 2.18 h | bioavailability ([2]; male, mouse, plasma, ICR mice, PO 5 mg/kg vs IV 2 mg/kg, from mean values, read-out: F* (bioavailability)): 67.2% | IC50 (MDM2): 1.78 nM

Reference: US11339171B2, “MDM2 inhibitors” (Gan & Lee Pharmaceuticals, priority 2017, dated 2022)
